Our source for the IC50 values is patent US10745400B2, “Inhibition of BMP signaling, compounds, compositions and uses thereof” (Vanderbilt University, priority 2018, dated 2020).

One experiment concerns the target caALK1 (Homo sapiens, UniProt P37023). The experiment can be described thus: Subtype analysis, constitutively active caALK1. The settings on record: Primary In Vitro Data, constitutively active ALK1. Type of experiment: cell-based.
The target of another experiment is ALK1/ACVRL1 (Homo sapiens, UniProt P37023). Briefly: Kinase assay (33P-ATP filter-binding), ALK1. It counts as biochemical. The following applies: read-out: Kinase Selectivity ALK1/ACVRL1. The method, boiled down: (§1)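 Radiometric 33P-ATP turnover captured on P81 paper following a 2 h room-temperature reaction. Compounds were preincubated with enzyme and substrate for 20 min in pH 7.5 Hepes buffer containing 1% DMSO.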
ALK1/ACVRL1, sequence (P37023 22-503): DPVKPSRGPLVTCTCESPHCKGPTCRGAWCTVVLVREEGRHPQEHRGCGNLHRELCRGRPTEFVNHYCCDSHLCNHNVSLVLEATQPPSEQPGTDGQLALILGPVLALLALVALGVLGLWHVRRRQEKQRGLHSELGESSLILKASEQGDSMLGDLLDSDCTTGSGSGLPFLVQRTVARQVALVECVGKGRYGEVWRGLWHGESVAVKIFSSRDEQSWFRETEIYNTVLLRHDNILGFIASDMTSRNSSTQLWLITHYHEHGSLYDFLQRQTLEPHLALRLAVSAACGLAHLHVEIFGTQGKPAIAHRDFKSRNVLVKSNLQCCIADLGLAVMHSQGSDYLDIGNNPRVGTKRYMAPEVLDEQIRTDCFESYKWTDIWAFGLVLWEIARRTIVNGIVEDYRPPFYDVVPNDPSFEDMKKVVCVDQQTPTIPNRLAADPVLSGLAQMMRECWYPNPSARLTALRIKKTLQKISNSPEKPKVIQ

The next experiment addresses ALK3/BMPR1A (Homo sapiens, UniProt P36894). The experiment can be described thus: Kinase assay (33P-ATP filter-binding), ALK3. The settings on record: 1 mM; read-out: Kinase Selectivity ALK3/BMPR1A (1 mM). Type of experiment: biochemical. The method, boiled down:
as §1

The target in the next experiment is T1, ALK2 (Q207D) (Homo sapiens, UniProt Q04771, Q207D).
T1 sequence (Q04771 21-509 Q207D): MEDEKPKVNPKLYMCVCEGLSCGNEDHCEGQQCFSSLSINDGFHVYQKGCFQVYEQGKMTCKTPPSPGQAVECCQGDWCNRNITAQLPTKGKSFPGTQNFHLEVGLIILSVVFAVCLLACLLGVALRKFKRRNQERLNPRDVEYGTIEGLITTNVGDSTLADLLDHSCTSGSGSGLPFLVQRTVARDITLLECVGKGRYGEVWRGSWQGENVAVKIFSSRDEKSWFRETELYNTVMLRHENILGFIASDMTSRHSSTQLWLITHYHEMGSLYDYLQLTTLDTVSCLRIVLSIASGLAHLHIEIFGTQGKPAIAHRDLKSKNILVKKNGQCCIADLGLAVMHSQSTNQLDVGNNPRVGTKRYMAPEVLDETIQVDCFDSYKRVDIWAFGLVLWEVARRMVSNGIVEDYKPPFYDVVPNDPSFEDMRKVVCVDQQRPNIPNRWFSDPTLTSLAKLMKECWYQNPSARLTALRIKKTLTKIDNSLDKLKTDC
The experiment can be described thus: Kinase assay (33P-ATP filter-binding), ALK2 Q207D. It counts as biochemical. The settings on record: Q207D mutant, 20 mM; read-out: Kinase Selectivity ALK2 (Q207D, 20 mM). The procedure:
(§2) The kinase assays were carried out briefly as follows. Substrate was prepared in Base Reaction Buffer (20 mM Hepes (pH 7.5), 10 mM MgCl2, 1 mM EGTA, 0.02% Brij35, 0.02 mg/ml BSA, 0.1 mM Na3VO4, 2 mM DTT, 1% DMSO). The indicated kinases was delivered into the substrate solution and allowed to gently mix. Next, the specific compound was delivered in DMSO into the kinase mixture by Acoustic technology (Echo550; nanoliter range), and allowed to incubate for 20 minutes at room temperature. Next, ^33P-ATP was delivered into the reaction mixture to initiate the reaction and allowed to incubate at room temperature. After 2 hours, the reactions were spotted onto P81 ion exchange paper and the kinase activity is detected by the filter-binding method.

The next experiment has as its target T2, ALK2 (R206H) (Homo sapiens, UniProt Q04771, R206H).
T2 sequence (Q04771 21-509 R206H): T1 sequence (Q04771 21-509 Q207D) with R186H, D187Q
Briefly: Kinase assay (33P-ATP filter-binding), ALK2 R206H. It counts as biochemical. The following applies: R206H mutant, 20 mM; read-out: Kinase Selectivity ALK2 (R206H, 20 mM). The procedure: as §2

A further experiment deals with T3, ALK2/ACVR1 (Homo sapiens, UniProt Q04771).
T3 sequence (Q04771 21-509): T1 sequence (Q04771 21-509 Q207D) with D187Q
The experiment can be described thus: Kinase assay (33P-ATP filter-binding), ALK2. Type of experiment: biochemical. The following applies: 20 mM; read-out: Kinase Selectivity ALK2/ACVR1 (20 mM). The protocol:
as §2

A further experiment deals with T4, caALK2 (Homo sapiens, UniProt Q04771, Q207D).
T4 construct: expressed in transfected cells; host or cells: C2C12BRA cells (mouse myoblast, BMP-responsive reporter)
T4 sequence (Q04771 21-509 Q207D): T1 sequence (Q04771 21-509 Q207D)
The experiment can be described thus: Subtype analysis, C2C12BRA cells transfected with constitutively active caALK2. It counts as cell-based. The settings on record: Primary In Vitro Data, constitutively active ALK2. The protocol:
(§3) The BMP4 cell assay were carried out briefly as follows. Stably transfected BMP-responsive C2C12 mouse myoblast cells (containing the Idl promoter-firefly luciferase reporter) were seeded in 96-well plates and incubated overnight with the compounds and BMP4 (50 ng/mL). The cells were then lysed, and cell extracts were then subjected to the firefly luciferase assay using Steady-Glo luciferase assay kit (Promega). The results were normalized to cell titers, as measured using Cell Titer-Glo luminescence assay (Promega). For subtype analysis, C2C12BRA cells were transiently transfected with plasmids (0.1 μg) expressing constitutively active forms of the BMP type I receptors (caALK2, caALK3 or caALK6) using Lipofectamine kit (Invitrogen) in 96 well plates; 0.1 μg of pRL-TK Renilla luciferase (Promega) was used to control for transfection efficiency. Relative activity was quantified by the ratio of firefly to Renilla luciferase activities using the dual luciferase assay kit (Promega).

Experiment [1] relates to BMP-responsive C2C12 mouse myoblast cells stimulated with BMP4. Briefly: BMP4 cell assay (Id1 promoter-firefly luciferase reporter). Type of experiment: cell-based. The settings on record: Mus musculus; C2C12 cells, BMP4 50 ng/mL, overnight. The protocol:
as §3, with “For subtype analysis, C2C12BRA cells were transiently transfected with plasmids (0.1 μg) expressing constitutively active forms of the BMP type I receptors (caALK2, caALK3 or caALK6) using Lipofectamine kit (Invitrogen) in 96 well plates; 0.1 μg of pRL-TK Renilla luciferase (Promega) was used to control for transfection efficiency.” left out
(In general: Reporter assays use an easily measured gene product as a stand-in for the process of interest.)

Numbering of substitutions follows the chain as printed.

ALK3/BMPR1A, sequence (P36894 24-532): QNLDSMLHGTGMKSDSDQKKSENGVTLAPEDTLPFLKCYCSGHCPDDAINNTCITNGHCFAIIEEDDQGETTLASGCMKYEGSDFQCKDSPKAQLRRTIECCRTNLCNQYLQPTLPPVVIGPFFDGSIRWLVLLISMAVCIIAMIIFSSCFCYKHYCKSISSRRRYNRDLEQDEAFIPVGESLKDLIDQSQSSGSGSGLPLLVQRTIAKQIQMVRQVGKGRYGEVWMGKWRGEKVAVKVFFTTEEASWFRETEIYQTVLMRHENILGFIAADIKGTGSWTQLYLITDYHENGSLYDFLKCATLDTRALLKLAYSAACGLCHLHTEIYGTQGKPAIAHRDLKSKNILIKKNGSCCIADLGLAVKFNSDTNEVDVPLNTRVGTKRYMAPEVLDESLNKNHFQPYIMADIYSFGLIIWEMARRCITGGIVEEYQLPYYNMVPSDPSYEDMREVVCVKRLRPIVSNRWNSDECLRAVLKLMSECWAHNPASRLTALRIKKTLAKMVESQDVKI
caALK1, sequence (P37023 whole entry Q201D, form open): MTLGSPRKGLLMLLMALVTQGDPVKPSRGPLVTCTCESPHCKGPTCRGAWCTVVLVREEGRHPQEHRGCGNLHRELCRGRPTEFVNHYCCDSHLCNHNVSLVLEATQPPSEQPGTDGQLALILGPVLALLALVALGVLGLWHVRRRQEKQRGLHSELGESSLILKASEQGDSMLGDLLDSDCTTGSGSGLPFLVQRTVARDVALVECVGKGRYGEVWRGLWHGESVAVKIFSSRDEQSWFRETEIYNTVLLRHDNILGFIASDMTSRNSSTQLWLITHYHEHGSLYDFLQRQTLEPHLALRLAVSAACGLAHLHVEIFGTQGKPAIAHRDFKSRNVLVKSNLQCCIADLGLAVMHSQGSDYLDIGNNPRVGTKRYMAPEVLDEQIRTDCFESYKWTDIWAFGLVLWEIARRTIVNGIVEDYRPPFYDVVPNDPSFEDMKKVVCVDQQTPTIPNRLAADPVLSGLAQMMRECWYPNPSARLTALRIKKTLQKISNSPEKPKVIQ

`Cc1cc(-c2cnc3cc(-c4ccc(N5CCN(C)CC5)cc4)ccn23)c2cccnc2n1` [Compound 28]: the IC50 is 189 nM against caALK1; 1200 nM on ALK1/ACVRL1; < 5.08 nM at ALK3/BMPR1A; 79.1 nM on ALK2 (Q207D); 105 nM at ALK2 (R206H); 114 nM at ALK2/ACVR1. Moreover, the IC50 against caALK2 was determined as 44 nM; in experiment [1] it was 66 nM.

With `CN1CCN(c2ccc(-c3ccn4c(-c5ccnc6ncccc56)cnc4c3)cc2)CC1` [Compound 29], the IC50 amounted to 178 nM at caALK1; 767 nM at ALK1/ACVRL1; 17.4 nM at ALK3/BMPR1A; 77.6 nM at ALK2 (Q207D); 88.2 nM on ALK2 (R206H); 84.9 nM at ALK2/ACVR1. The IC50 on caALK2 came out at 16 nM; in experiment [1], 112 nM.
